Source: patent publication US7538220B2, “Intermediates in the preparation of homocamptothecin analogs” (University of Pittsburgh - of the Commonwealth System of …, priority 1999, dated 2009)

How the values were obtained:
[1] = system: MDA-MB-435 tumorigenic metastatic human breast cancer cells; assay: Cytotoxicity, sulphorrhodamine B (SRB) assay; format: cell-based; conditions: MDA-MB-435, 72 h, read-out: IC50 (w/o HSA)
Description: Cytotoxicity measurements were conducted using MDA-MB-435 tumorigenic human breast cancer cells. The cells were exposed to a range of drug concentrations for 72 hr exposure periods and then viability was assessed using a sulphorrhodamine B (SRB) assay. The SRB measures the total protein levels in the living cells. Proteins from dead cells are lysed and removed in the washing step before TCA fixation. However, it is possible that cells in the early stage of death still have their membrane integrity and therefore retain the protein contents inside. As a result, the optical density at 490 nm can sometimes be overestimated and the cytotoxicity underestimated. […] The SRB assay is now a well regarded assay and was recently approved by NCl as a standard assay for anticancer drug screening. […] Each IC50 value represents the average of three separate trials with each dosage level studied in triplicate.

[2] = Lactone ring stability in PBS suspensions of albumin-free red blood cells by HPLC; format: in vitro ADME, human; conditions: albumin-free RBC in PBS (5±1)×10^6 cell/μL, 37° C.
Description: FIG. 15 depicts the stabilities of four novel homosilatecans of the current invention in PBS suspensions containing physiologically-relevant concentrations [(5±1)×10^6 cell/μL] of albumin-free red blood cells. Stability characteristics were determined at 37° C. using HPLC methods.
(§1) HPLC solvents were from Fisher Scientific.
To study the stabilities of the novel homosilatecans in the presence of physiologically relevant concentrations of red blood cells (RBC), the following experiments were performed. Packed Red blood cells obtained from the Central Kentucky Red Cross and were counted using a Coulter Cell Counter. The number of cells was adjusted to 5×10^12 Cells/L using PBS, pH 7.4 and incubated at 37° C. for 30 min. […] RBCs were incubated at 37° C. for 30 min and the pH remeasured to ensure that it was within the same range as before the assays were started. […] Aliquots of drug in DMSO were added to RBC suspensions in PBS to result in final drug concentration of 1 μM. […] The sample was analyzed on HPLC as soon as possible.

[3] = Lactone ring stability in mouse blood by HPLC; conditions: for Ratio of Lactone Level Mouse/Human / underestimation of human blood lactone level by mouse blood: blood; for Ratio of Lactone Level Mouse/Human: 3 hours of incubation; for Percent Lactone in Mouse Blood after 3 Hours of Incubation: pH 7.4, 37° C.; for underestimation of human blood lactone level by mouse blood: 3 hours
Description: The hydrolysis kinetics of camptothecins in the presence of different blood components were determined by a quantitative C18 reversed-phase high-performance liquid chromatography (HPLC) assay modified from methodologies described previously in the literature cited above. The preparation of whole blood and fractionated blood samples was carried out as described previously. Crystallized HSA of high purity (>97%) from Sigma Chemical (St. Louis, Mo.) was used. HSA stock solutions were prepared in PBS buffer with a final pH of 7.40±0.05. HSA concentrations were determined by UV absorbance at 278 nm using an extinction coefficient of 39,800 M^−1 cm^−1 (Porter, 1992). All other agents were reagent grade and were used without further purification. High purity water provided by a Milli-Q UV PLUS purification system (Bedford, Mass.) was utilized in all experiments. HPLC solvents were from Fisher Scientific. Human plasma and red blood cells were obtained from Central Kentucky Blood Center. […] Blood from mice was collected in heparinized tubes and stored at 5-10° C. until use.
HPLC assays were performed either on a Waters Alliance 2690 HPLC system equipped with a temperature-controlled autosampler and Waters 474 scanning fluorescence detector. A second HPLC system was composed of a Waters HPLC system composed of 501 HPLC pumps, 717 Plus temperature-controlled autosampler and 470 scanning fluorescence detector. The HPLC assay procedures used for the homosilatecans are summarized below. Solvent A consisted of acetonitrile and Solvent B was 2% triethylammonium acetate, pH 5.5, with a flow rate of 1 ml/min. For DB-38 an isocratic elution was used: 33% Solvent A; 67% Solvent B; λex:345 nm and λem:518 nm. For DB-81 an isocratic elution was used: 56% Solvent A; 44% Solvent B; and λex:375 nm and λem:444 nm. For DB-90 an isocratic elution was used: 41% Solvent A; 59% Solvent B; λex:412 nm and λem:526 nm. For DB-91 an isocratic elution of 42% Solvent A, 58% Solvent B, and λex:392 nm and λem:562 nm.
To determine drug stability in whole blood, whole blood was incubated at 37° C. for 30 min and pH determined. Blood pH was adjusted to 7.4+/−0.5 using either 0.1 M KOH or 0.1 M HCl. Blood samples were incubated at 37° C. for 30 min and pH remeasured to ensure that it is within the range before an individual assay was started. Aliquots of blood (2 ml each) were removed and placed in three disposable glass test tubes and the tubes were incubated at 37° C. […] Incubation at 37° C. was continued and 150 μl aliquots were removed at different time points and added to 600 μl of cold methanol (−20° C.) in an eppendorf tube. The tube was then vortexed for 10 sec and centrifuged in a table top microcentrifuge at 8000 rpm for 45 sec. The Supernatant was removed and placed in an autosampler vial and the vial quickly added to the autosampler maintained at 4° C. The sample was analyzed immediately on the HPLC set-up. The data analysis was as described for the drug in PBS only samples.

[4] = Lactone ring stability in PBS by HPLC; format: physicochemical; conditions: 37° C., 1 μM
Description: FIG. 12 contrasts the improved stabilities of four novel homosilatecans of the present invention with their corresponding silatecan structure containing the α-hydroxylactone functionality. All the experiments of FIG. 12 were conducted in PBS at 37° C.
as §1
To determine the stabilities of homosilatecans in PBS, an aliquot of each of the homosilatecans in DMSO was added to phosphate buffered saline (PBS), pH 7.4 in a HPLC autosampler vial maintained at 37° C. in a water bath to result in final drug concentration of 1 μM. The drug-containing vial was quickly transferred to the autosampler maintained at 37° C. and aliquots analyzed at various time points. All the determinations were done in triplicate. The data was collected and analyzed using Waters Millenium software. The fraction of lactone was calculated using the peak area of lactone and carboxylate peak and using the lactone/carboxylate ratio.

[5] = Lactone ring stability in whole human blood by HPLC; conditions: for Percent Lactone in Human Blood after 3 Hours of Incubation: pH 7.4, 37° C. (Table 4); for % Lactone: whole human blood, 1 μM
Description: All experiments were conducted at pH 7.4 and 37° C.
as §1

[6] = Lactone ring stability in PBS containing human serum albumin by HPLC; format: in vitro ADME; conditions: PBS with 30 mg/ml HSA, 37° C., 1 μM
Description: FIG. 13 depicts the improved stabilities of four novel homosilatecans of the current invention following incubation in PBS containing 30 mg/ml human serum albumin at 37° C. […] All the experiments of FIG. 14 were conducted in human plasma at 37° C. Plasma samples were continuously aerated by a stream of blood gas resulting in the maintenance of pH at values of 7.5±0.1.
as §1
To study the stabilities of homosilatecans in PBS containing human serum albumin (HSA), the HSA was dissolved in PBS, pH 7.4 at the concentration of 30 mg/ml and incubated at 37° C. The pH was measured and adjusted to 7.4+/−0.5 using 0.1 M KOH or 0.1 M HCl. Incubation continued until pH stabilized within the target range. An aliquot of PBS/HSA was removed and placed in an autosampler vial and maintained at 37° C. for 10 min. An aliquot of the drug in DMSO was added to the sample resulting in a final drug concentration of 1 μM. The vial was quickly added to the HPLC autosampler maintained at 37° C. and aliquots were injected and analyzed by HPLC at different time points. The data analysis was as described above for the drug in PBS only samples.

| SMILES | IC50 [1] | % Lactone ([2]; 3 hours) | % Lactone ([2]; 24 hours) | Ratio of Lactone Level Mouse/Human [3] | Percent Lactone in Mouse Blood after 3 Hours of Incubation [3] | % Lactone ([4]; PBS pH 7.4, 3 hours) | % Lactone ([4]; PBS pH 7.4, 24 hours) | Percent Lactone in Human Blood after 3 Hours of Incubation [5] | % Lactone ([5]; 3 hours incubation, pH 7.4, 37° C.) | % Lactone ([6]; 3 hours) | % Lactone ([6]; 24 hours) | underestimation of human blood lactone level by mouse blood [3] | % Lactone ([5]; 24 hours incubation, 37° C.) |
| --- | --- | --- | --- | --- | --- | --- | --- | --- | --- | --- | --- | --- | --- |
| CCC1(O)CC(=O)OCc2c1cc1n(c2=O)Cc2c-1nc1ccc(N)cc1c2[Si](C)(C)C (racemic) [DB-38, 5-Ethyl-1,4,5,13-tetrahydro-5-hydroxy-10-amino-12-trimethylsilyl-3H,15H-oxepino[3′,4′:6,7]indolizino[1,2-b]quinoline-3,15-dione] | 20 nM | 84.8 ± 1.5% | 39.4 ± 1.2% | 1.3 | 72% | 82.8 ± 0.7% | 26.8 ± 2.3% | 56% | 56.4 ± 0.6% | 81.4 ± 0.3% | 34.1 ± 2.2% | – | – |
| CCC1(O)CC(=O)OCc2c1cc1n(c2=O)Cc2c-1nc1ccccc1c2[Si](C)(C)C(C)(C)C (racemic) [DB-81, 5-Ethyl-1,4,5,13-tetrahydro-5-hydroxy-12-tert-butyldimethylsilyl-3H,15H-oxepino[3′,4′:6,7]indolizino[1,2-b]quinoline-3,15-dione] | 77 ± 13 nM | 92.0 ± 0.0% | 55.8 ± 1.7% | 0.9 | 80% | 84.9 ± 0.3% | 30.9 ± 2.0% | 87% | – | 88.1 ± 0.2% | 42.5 ± 1.6% | 6% | 27.0 ± 2.3% |
| CCC1(O)CC(=O)OCc2c1cc1n(c2=O)Cc2c-1nc1ccc(N)cc1c2[Si](C)(C)C(C)(C)C (racemic) [DB-90, 5-Ethyl-1,4,5,13-tetrahydro-5-hydroxy-10-amino-12-tert-butyldimethylsilyl-3H,15H-oxepino[3′,4′:6,7]indolizino[1,2-b]quinoline-3,15-dione] | 73 ± 8 nM | 85.5 ± 0.4% | 38.5 ± 1.4% | 0.7 | 61% | 83.7 ± 0.5% | 26.1 ± 1.0% | 85% | – | 86.8 ± 0.2% | 42.0 ± 2.7% | – | 24.6 ± 1.3% |
| CCC1(O)CC(=O)OCc2c1cc1n(c2=O)Cc2c-1nc1ccc(O)cc1c2[Si](C)(C)C(C)(C)C (racemic) [DB-91, 5-Ethyl-1,4,5,13-tetrahydro-5-hydroxy-10-hydroxy-12-tert-butyldimethylsilyl-3H,15H-oxepino[3′,4′:6,7]indolizino[1,2-b]quinoline-3,15-dione] | 115 ± 5 nM | 88.5 ± 0.2% | 42.6 ± 2.6% | 0.8 | 70% | 83.1 ± 0.3% | 32.2 ± 1.0% | 85% | – | 82.9 ± 0.3% | 33.2 ± 3.0% | 20% | 37.1 ± 1.8% |
